Legend:
Assay in all cases: radiometric filter-binding kinase assay, Kinase HotSpot
Conditions in all cases: compound 0.5 µM; ATP 10 µM
HIPK3 (human) = HIPK3 (human) (UniProt Q9H422)
CAMKK2 (human) = CAMKK2 (human) (UniProt Q96RR4)
EGFR (human) = EGFR (human) (UniProt P00533)
CSF1R (human) = CSF1R (human) (UniProt P07333)
EPHA7 (human) = EPHA7 (human) (UniProt Q15375)
ULK3 (human) = ULK3 (human) (UniProt Q6PHR2)
CAMK1G (human) = CAMK1G (human) (UniProt Q96NX5)
FYN (human) = FYN (human) (UniProt P06241)
SIK2 (human) = SIK2 (human) (UniProt Q9H0K1)
GSK3B (human) = GSK3B (human) (UniProt P49841)
NEK7 (human) = NEK7 (human) (UniProt Q8TDX7)
Chain of NEK7 (human) (Q8TDX7 whole entry, looked up): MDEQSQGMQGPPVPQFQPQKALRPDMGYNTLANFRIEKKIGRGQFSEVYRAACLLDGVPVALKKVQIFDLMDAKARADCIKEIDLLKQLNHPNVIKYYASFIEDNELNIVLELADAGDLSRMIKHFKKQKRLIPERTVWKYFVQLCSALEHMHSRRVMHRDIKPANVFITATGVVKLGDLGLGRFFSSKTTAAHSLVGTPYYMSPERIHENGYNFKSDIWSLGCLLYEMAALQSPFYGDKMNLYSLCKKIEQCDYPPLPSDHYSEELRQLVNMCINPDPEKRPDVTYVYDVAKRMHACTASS

MAPKAPK3 (human) = MAPKAPK3 (human) (UniProt Q16644)
ADRBK1 (human) = ADRBK1 (human) (UniProt P25098)
Chain of ADRBK1 (human) (P25098 whole entry, looked up): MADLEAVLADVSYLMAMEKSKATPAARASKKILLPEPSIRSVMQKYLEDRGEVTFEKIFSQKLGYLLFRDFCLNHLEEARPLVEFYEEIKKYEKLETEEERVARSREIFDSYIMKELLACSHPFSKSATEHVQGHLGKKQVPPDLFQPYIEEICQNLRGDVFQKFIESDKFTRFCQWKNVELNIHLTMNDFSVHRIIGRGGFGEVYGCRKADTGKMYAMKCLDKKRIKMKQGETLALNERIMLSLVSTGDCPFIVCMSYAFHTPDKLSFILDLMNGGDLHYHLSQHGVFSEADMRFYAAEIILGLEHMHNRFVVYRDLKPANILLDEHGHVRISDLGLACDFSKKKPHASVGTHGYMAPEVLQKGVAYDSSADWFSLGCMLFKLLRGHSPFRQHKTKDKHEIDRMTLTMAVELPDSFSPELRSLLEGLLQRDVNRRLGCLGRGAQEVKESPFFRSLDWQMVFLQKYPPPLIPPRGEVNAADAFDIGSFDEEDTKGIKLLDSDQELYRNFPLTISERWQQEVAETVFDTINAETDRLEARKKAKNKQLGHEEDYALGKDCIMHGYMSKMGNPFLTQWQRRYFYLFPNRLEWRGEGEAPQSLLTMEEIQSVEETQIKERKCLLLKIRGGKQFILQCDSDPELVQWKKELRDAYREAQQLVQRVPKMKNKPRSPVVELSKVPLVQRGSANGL

PKN1 (human) = PKN1 (human) (UniProt Q16512)
LIMK1 (human) = LIMK1 (human) (UniProt P53667)
PDGFRA (human) = PDGFRA (human) (UniProt P16234)
MAP3K7 TAB1 (human) = MAP3K7 TAB1 (human) (UniProt O43318+Q15750)
Chain of MAP3K7 TAB1 (human) (O43318 whole entry, looked up): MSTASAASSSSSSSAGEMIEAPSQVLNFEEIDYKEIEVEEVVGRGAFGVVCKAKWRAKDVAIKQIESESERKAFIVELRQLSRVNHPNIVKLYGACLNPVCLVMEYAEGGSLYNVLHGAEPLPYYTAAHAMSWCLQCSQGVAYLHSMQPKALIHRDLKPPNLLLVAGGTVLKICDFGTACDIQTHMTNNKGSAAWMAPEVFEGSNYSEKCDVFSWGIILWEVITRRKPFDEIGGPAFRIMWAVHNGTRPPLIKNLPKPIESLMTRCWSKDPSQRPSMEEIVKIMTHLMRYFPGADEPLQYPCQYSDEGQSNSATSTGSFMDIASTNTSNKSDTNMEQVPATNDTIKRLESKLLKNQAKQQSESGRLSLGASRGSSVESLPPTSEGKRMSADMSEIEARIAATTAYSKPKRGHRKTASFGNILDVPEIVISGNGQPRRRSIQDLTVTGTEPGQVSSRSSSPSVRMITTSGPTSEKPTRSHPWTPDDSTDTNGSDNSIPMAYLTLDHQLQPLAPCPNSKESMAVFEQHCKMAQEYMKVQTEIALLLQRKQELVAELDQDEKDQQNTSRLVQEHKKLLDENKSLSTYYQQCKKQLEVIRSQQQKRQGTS
Chain of MAP3K7 TAB1 (human) (Q15750 whole entry, looked up): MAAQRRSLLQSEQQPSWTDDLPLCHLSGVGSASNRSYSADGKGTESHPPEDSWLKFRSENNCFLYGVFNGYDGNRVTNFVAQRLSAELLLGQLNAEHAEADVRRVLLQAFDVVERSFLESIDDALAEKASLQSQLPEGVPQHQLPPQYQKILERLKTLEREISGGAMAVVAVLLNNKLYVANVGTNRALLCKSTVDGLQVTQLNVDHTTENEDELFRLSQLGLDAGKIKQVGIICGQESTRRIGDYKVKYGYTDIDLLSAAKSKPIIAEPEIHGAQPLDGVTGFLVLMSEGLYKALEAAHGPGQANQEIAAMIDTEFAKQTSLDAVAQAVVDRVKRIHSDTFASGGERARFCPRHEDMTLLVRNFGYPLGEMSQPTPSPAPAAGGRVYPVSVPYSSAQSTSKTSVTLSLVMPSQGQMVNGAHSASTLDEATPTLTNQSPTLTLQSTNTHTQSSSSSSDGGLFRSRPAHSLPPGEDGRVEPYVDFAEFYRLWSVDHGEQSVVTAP

FLT3 (human) = FLT3 (human) (UniProt P36888)
AURKA (human) = AURKA (human) (UniProt O14965)
EPHA3 (human) = EPHA3 (human) (UniProt P29320)
ROCK1 (human) = ROCK1 (human) (UniProt Q13464)
CDK5 CDK5R1 p25 (human) = CDK5 CDK5R1 p25 (human) (UniProt Q00535+Q15078)
Chain of CDK5 CDK5R1 p25 (human) (Q00535 whole entry, looked up): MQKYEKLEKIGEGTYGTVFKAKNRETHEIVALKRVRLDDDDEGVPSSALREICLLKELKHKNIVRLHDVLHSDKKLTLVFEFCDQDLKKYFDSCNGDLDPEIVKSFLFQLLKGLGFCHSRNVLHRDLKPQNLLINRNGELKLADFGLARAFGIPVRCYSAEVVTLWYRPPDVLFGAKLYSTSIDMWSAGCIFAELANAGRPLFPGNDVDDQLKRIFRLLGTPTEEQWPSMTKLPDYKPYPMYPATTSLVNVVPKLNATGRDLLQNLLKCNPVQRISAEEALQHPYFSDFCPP
Chain of CDK5 CDK5R1 p25 (human) (Q15078 whole entry, looked up): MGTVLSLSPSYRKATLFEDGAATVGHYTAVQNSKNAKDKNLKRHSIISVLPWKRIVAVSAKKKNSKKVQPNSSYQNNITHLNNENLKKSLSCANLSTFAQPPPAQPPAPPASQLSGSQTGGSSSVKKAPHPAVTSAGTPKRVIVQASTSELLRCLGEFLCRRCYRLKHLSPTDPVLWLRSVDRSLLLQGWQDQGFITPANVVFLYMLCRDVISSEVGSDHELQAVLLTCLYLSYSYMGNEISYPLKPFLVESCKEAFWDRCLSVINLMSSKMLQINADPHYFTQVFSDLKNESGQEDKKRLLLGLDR

STK3 (human) = STK3 (human) (UniProt Q13188)
PAK3 (human) = PAK3 (human) (UniProt O75914)
EPHA5 (human) = EPHA5 (human) (UniProt P54756)
NEK9 (human) = NEK9 (human) (UniProt Q8TD19)
STK25 (human) = STK25 (human) (UniProt O00506)
Chain of STK25 (human) (O00506 whole entry, looked up): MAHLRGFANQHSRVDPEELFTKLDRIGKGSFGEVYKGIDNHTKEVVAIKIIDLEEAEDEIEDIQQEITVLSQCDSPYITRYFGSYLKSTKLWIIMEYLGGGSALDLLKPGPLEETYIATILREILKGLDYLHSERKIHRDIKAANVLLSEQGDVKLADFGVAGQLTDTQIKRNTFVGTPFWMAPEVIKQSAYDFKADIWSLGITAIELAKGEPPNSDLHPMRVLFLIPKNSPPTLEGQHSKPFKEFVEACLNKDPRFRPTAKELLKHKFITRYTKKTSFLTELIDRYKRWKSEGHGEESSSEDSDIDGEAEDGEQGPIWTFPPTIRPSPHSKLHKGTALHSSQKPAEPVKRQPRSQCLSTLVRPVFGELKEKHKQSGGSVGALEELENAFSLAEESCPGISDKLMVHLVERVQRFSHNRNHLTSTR

MAPK1 (human) = MAPK1 (human) (UniProt P28482)
GSG2 (human) = GSG2 (human) (UniProt Q8TF76)
MAP3K2 (human) = MAP3K2 (human) (UniProt Q9Y2U5)
CAMKK1 (human) = CAMKK1 (human) (UniProt Q8N5S9)
STK4 (human) = STK4 (human) (UniProt Q13043)
Chain of STK4 (human) (Q13043 whole entry, looked up): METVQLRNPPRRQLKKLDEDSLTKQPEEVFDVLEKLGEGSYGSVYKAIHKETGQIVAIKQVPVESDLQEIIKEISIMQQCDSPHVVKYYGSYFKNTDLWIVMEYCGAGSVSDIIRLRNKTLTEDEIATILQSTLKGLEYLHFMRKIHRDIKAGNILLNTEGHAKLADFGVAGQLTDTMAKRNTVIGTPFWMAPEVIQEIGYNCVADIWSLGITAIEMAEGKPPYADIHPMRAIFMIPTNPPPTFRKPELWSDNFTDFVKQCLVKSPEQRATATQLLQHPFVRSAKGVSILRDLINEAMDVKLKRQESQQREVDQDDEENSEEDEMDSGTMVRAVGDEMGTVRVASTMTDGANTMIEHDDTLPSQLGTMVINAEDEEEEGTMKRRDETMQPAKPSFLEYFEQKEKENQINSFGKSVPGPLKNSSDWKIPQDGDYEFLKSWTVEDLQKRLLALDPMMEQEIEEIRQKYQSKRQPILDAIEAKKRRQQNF

MUSK (human) = MUSK (human) (UniProt O15146)
Chain of MUSK (human) (O15146 whole entry, looked up): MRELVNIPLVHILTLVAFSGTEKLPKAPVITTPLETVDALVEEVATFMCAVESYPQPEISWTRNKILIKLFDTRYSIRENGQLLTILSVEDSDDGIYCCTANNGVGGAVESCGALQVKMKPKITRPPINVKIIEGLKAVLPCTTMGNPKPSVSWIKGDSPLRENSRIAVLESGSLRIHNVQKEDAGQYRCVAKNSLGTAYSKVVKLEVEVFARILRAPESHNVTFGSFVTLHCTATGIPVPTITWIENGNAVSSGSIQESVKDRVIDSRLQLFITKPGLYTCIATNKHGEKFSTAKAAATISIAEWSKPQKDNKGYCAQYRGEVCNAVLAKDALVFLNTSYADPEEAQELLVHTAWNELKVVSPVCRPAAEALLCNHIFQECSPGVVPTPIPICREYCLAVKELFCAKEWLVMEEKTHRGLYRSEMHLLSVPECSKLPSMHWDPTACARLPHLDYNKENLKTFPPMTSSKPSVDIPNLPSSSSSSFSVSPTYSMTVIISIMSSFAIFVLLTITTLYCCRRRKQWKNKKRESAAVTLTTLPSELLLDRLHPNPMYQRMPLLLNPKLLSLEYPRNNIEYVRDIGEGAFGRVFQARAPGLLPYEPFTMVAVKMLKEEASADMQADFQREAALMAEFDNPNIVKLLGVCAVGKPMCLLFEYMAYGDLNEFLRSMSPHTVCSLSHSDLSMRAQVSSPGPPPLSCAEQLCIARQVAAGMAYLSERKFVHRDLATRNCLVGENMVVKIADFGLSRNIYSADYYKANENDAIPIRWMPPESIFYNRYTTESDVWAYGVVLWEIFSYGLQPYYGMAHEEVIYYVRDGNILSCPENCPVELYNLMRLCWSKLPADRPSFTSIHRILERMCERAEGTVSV

MAPKAPK5 (human) = MAPKAPK5 (human) (UniProt Q8IW41)
Chain of MAPKAPK5 (human) (Q8IW41 whole entry, looked up): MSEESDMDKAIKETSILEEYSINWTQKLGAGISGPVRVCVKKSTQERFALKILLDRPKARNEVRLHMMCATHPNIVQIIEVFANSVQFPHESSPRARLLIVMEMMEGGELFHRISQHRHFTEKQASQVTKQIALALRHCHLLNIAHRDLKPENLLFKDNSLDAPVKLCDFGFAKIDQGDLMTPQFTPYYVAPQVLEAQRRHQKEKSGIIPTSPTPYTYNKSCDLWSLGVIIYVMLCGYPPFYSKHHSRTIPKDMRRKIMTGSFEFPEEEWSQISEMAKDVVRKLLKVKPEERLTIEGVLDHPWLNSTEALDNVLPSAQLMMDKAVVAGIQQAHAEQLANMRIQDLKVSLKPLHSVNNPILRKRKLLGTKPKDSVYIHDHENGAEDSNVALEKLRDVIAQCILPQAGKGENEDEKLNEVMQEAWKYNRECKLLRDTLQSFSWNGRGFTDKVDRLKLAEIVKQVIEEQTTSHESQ

AKT2 (human) = AKT2 (human) (UniProt P31751)
RPS6KA4 KD2 (human) = RPS6KA4 KD2 (human) (UniProt O75676)
MST1R (human) = MST1R (human) (UniProt Q04912)
YES1 (human) = YES1 (human) (UniProt P07947)
PDPK1 (human) = PDPK1 (human) (UniProt O15530)
MARK1 (human) = MARK1 (human) (UniProt Q9P0L2)
GSK3A (human) = GSK3A (human) (UniProt P49840)
STK39 (human) = STK39 (human) (UniProt Q9UEW8)

O=C1NC(=O)/C(=C/c2ccc3c(c2)OC(F)(F)O3)S1
residual activity (HIPK3 (human)): 90.1% | residual activity (CAMKK2 (human)): 82.9% | residual activity (EGFR (human)): 85.1% | residual activity (CSF1R (human)): 106% | residual activity (EPHA7 (human)): 98.7% | residual activity (ULK3 (human)): 109% | residual activity (CAMK1G (human)): 107% | residual activity (FYN (human)): 96% | residual activity (SIK2 (human)): 101% | residual activity (GSK3B (human)): 92.3% | residual activity (NEK7 (human)): 105% | residual activity (MAPKAPK3 (human)): 94.2% | residual activity (ADRBK1 (human)): 103% | residual activity (PKN1 (human)): 98.5% | residual activity (LIMK1 (human)): 96.4% | residual activity (PDGFRA (human)): 103% | residual activity (MAP3K7 TAB1 (human)): 95.3% | residual activity (FLT3 (human)): 92.9% | residual activity (AURKA (human)): 92.4% | residual activity (EPHA3 (human)): 97.6% | residual activity (ROCK1 (human)): 93.7% | residual activity (CDK5 CDK5R1 p25 (human)): 89.7% | residual activity (STK3 (human)): 100% | residual activity (PAK3 (human)): 93.1% | residual activity (EPHA5 (human)): 100% | residual activity (NEK9 (human)): 109% | residual activity (STK25 (human)): 95.7% | residual activity (MAPK1 (human)): 85.7% | residual activity (GSG2 (human)): 96.7% | residual activity (MAP3K2 (human)): 94% | residual activity (CAMKK1 (human)): 86% | residual activity (STK4 (human)): 93.3% | residual activity (MUSK (human)): 70.9% | residual activity (MAPKAPK5 (human)): 98.2% | residual activity (AKT2 (human)): 96.2% | residual activity (RPS6KA4 KD2 (human)): 108% | residual activity (MST1R (human)): 100% | residual activity (YES1 (human)): 87.9% | residual activity (PDPK1 (human)): 100% | residual activity (MARK1 (human)): 97.2% | residual activity (GSK3A (human)): 88.1% | residual activity (STK39 (human)): 110%

O=C1NC(=O)c2c1c1c3ccccc3n3c1c1c2c2ccccc2n1C1CCC3O1
residual activity (HIPK3 (human)): 49.9% | residual activity (CAMKK2 (human)): 7.93% | residual activity (EGFR (human)): 78.3% | residual activity (CSF1R (human)): 29.3% | residual activity (EPHA7 (human)): 69.2% | residual activity (ULK3 (human)): 33% | residual activity (CAMK1G (human)): 56.5% | residual activity (FYN (human)): 59.9% | residual activity (SIK2 (human)): 33.9% | residual activity (GSK3B (human)): 4.6% | residual activity (NEK7 (human)): 99.1% | residual activity (MAPKAPK3 (human)): 93.1% | residual activity (ADRBK1 (human)): 97.9% | residual activity (PKN1 (human)): 2.68% | residual activity (LIMK1 (human)): 49.3% | residual activity (PDGFRA (human)): 32.8% | residual activity (MAP3K7 TAB1 (human)): 6.06% | residual activity (FLT3 (human)): 0.194% | residual activity (AURKA (human)): 22.3% | residual activity (EPHA3 (human)): 96.5% | residual activity (ROCK1 (human)): 88.7% | residual activity (CDK5 CDK5R1 p25 (human)): 28% | residual activity (STK3 (human)): 3.22% | residual activity (PAK3 (human)): 41.7% | residual activity (EPHA5 (human)): 78.7% | residual activity (NEK9 (human)): 23.4% | residual activity (STK25 (human)): 34.4% | residual activity (MAPK1 (human)): 88.7% | residual activity (GSG2 (human)): 18.5% | residual activity (MAP3K2 (human)): 14% | residual activity (CAMKK1 (human)): 27.2% | residual activity (STK4 (human)): 3.56% | residual activity (MUSK (human)): 25.8% | residual activity (MAPKAPK5 (human)): 80.4% | residual activity (AKT2 (human)): 48.5% | residual activity (RPS6KA4 KD2 (human)): 12.4% | residual activity (MST1R (human)): 87.7% | residual activity (YES1 (human)): 31.9% | residual activity (PDPK1 (human)): 10.6% | residual activity (MARK1 (human)): 10.4% | residual activity (GSK3A (human)): 2.19% | residual activity (STK39 (human)): 88.3%

CO[C@H]1CC2CC[C@@H](C)[C@@](O)(O2)C(=O)C(=O)N2CCCC[C@H]2C(=O)OC([C@H](C)C[C@@H]2CC[C@@H](O)[C@H](OC)C2)CC(=O)[C@H](C)/C=C(\C)[C@@H](O)[C@@H](OC)C(=O)[C@H](C)C[C@H](C)/C=C/C=C/C=C/1C (stereo partly specified)
residual activity (HIPK3 (human)): 107% | residual activity (CAMKK2 (human)): 115% | residual activity (EGFR (human)): 93.3% | residual activity (CSF1R (human)): 101% | residual activity (EPHA7 (human)): 89.7% | residual activity (ULK3 (human)): 85.6% | residual activity (CAMK1G (human)): 93% | residual activity (FYN (human)): 109% | residual activity (SIK2 (human)): 94.3% | residual activity (GSK3B (human)): 109% | residual activity (NEK7 (human)): 104% | residual activity (MAPKAPK3 (human)): 90.9% | residual activity (ADRBK1 (human)): 102% | residual activity (PKN1 (human)): 96.2% | residual activity (LIMK1 (human)): 89.8% | residual activity (PDGFRA (human)): 95.1% | residual activity (MAP3K7 TAB1 (human)): 95.2% | residual activity (FLT3 (human)): 95.6% | residual activity (AURKA (human)): 81.5% | residual activity (EPHA3 (human)): 109% | residual activity (ROCK1 (human)): 103% | residual activity (CDK5 CDK5R1 p25 (human)): 96.3% | residual activity (STK3 (human)): 105% | residual activity (PAK3 (human)): 102% | residual activity (EPHA5 (human)): 94.7% | residual activity (NEK9 (human)): 98.2% | residual activity (STK25 (human)): 129% | residual activity (MAPK1 (human)): 101% | residual activity (GSG2 (human)): 103% | residual activity (MAP3K2 (human)): 94.8% | residual activity (CAMKK1 (human)): 118% | residual activity (STK4 (human)): 106% | residual activity (MUSK (human)): 87.7% | residual activity (MAPKAPK5 (human)): 98% | residual activity (AKT2 (human)): 96.1% | residual activity (RPS6KA4 KD2 (human)): 91.8% | residual activity (MST1R (human)): 97% | residual activity (YES1 (human)): 101% | residual activity (PDPK1 (human)): 92.6% | residual activity (MARK1 (human)): 98.8% | residual activity (GSK3A (human)): 106% | residual activity (STK39 (human)): 97.9%
